The values below are quoted from earlier work in patent publication US9889132B2, “Pharmaceutical compositions for the treatment of psoriasis” (Special Product's Line S.p.A., priority 2014, dated 2018).

Structures are written as SMILES.

For `COc1cc(Nc2nc(C)cc(C)n2)cc(OC)c1OC` [4,6-dimethyl-N-(3,4,5-trimethoxyphenyl)pyrimidin-2-amine], the LD50 i.p. with mouse (i.p.) is listed as 780 mg/kg. Besides, the LD50 per os in the data set with mouse (per os) was 4110 mg/kg. In addition, the antimitotic action entry in the data set with mammal cells was “considerable antimitotic action”.
